Source: a melting point compilation (Tetko et al.)

`O=C(O)c1sc2cccc(F)c2c1COc1ccccc1` showed a melting point of 206 to 208 °C. Compound `N#Cc1ccc(N2CCN(c3ccc(F)cc3)CC2)nc1` has a melting point of 166 to 168 °C. Compound `CN(C)C(=O)Nc1ccc(C(=O)O)c(Cl)c1` has a melting point of 191 to 193 °C. Compound `CSc1ccc(C(=O)CCl)cc1` has a melting point of 72 to 74 °C. In the case of `CCOC(=O)c1c(C)oc2cc3c(C(=O)OCC)c(C)oc3cc12`, the melting point is reported as 187 to 189 °C. Compound `Cc1ccc(NC(=O)CCl)cc1S(=O)(=O)N(C)C` has a melting point of 74 to 76 °C. Work on `O=C(O)c1c(Cl)nc2ccccc2c1Cl` yielded a melting point of 167 to 169 °C. `Cc1ccc(-c2cc(C(=O)O)c3ccccc3n2)cc1` gave a melting point of 180 to 184 °C. For `NNc1ccc(S(=O)(=O)N2CCC(Cc3ccccc3)CC2)cn1`, the melting point was 185 to 187 °C. Compound `CN1C(=O)CC(C(=O)O)C1c1cccc(Cl)c1` (stereo not given) has a melting point of 155 to 157 °C. `CCNc1ccc(C#N)cn1` showed a melting point of 88 to 90 °C. In the case of `CCNc1nnc(S)s1`, the melting point is reported as 141 to 143 °C. `O=C(O)CN1C(=O)c2cc(Cl)c(Cl)cc2C1=O` gave a melting point of 309 to 311 °C. Compound `N#Cc1ccc(C(=O)NCC(=O)O)cc1` has a melting point of 193 to 195 °C. `Cc1cc(C)nc(-n2nc(C)cc2N)n1` gave a melting point of 173 to 175 °C. With `Cc1ccc(S(=O)(=O)C(C#N)c2nc3ccccc3nc2Cl)cc1` (stereo not given) the melting point was 105 to 107 °C. For `COC(=O)c1ccc2nc(N)oc2c1`, the melting point was 228 to 230 °C. `CCn1nc(C)c(C(=O)O)c1C` gave a melting point of 139 to 141 °C. For `COc1cc2c(cc1[N+](=O)[O-])C(=O)CCC2`, the melting point was 176 to 178 °C. `O=C(O)CCNC(=O)c1ccc(F)cc1F` showed a melting point of 118 to 120 °C. For `NNc1ccc(S(=O)(=O)NC2CCCC2)cn1`, the melting point was 167 to 169 °C. `c1cnnc(NCC2CNCCO2)c1` (stereo not given) gave a melting point of 148 to 150 °C. Compound `CCOc1cc2c(c3[nH]c(C(=O)O)cc13)OC(C)C2` (stereo not given) has a melting point of 226 to 228 °C. Work on `NC(=O)C1CC(O)CN1` (stereo not given) yielded a melting point of 117 to 119 °C. For `Nc1cc(-c2cc3ccccc3o2)n[nH]1`, the melting point was 124 to 126 °C. For `CC(C)(C)OC(=O)NCCNS(=O)(=O)c1ccc(N)cc1`, the melting point was 130 to 132 °C. With `COCCOc1ccc(Cl)cc1S(N)(=O)=O` the melting point was 124 to 126 °C. For `CC(=O)NCCc1ccc(C(=O)CCl)cc1F`, the melting point was 97 to 99 °C. Work on `CCn1c(CCl)nc2cc(S(=O)(=O)N3CCCCC3)ccc21` yielded a melting point of 234 to 236 °C. With `COc1ccccc1-c1cc(N)on1` the melting point was 93 to 95 °C. With `Cc1noc(C)c1C(C)C(=O)O` (stereo not given) the melting point was 101 to 103 °C. In the case of `O=C(O)C1Cc2cccc(F)c2O1` (stereo not given), the melting point is reported as 126 to 128 °C. In the case of `N#Cc1cncs1`, the melting point is reported as 51 to 53 °C. `O=S(=O)(c1ccc2[nH]c(S)nc2c1)N1CCOCC1` gave a melting point of 285 to 287 °C. Work on `COc1ccc(Cl)cc1NS(=O)(=O)c1cccc(C(=O)O)c1` yielded a melting point of 155 to 157 °C. Compound `Cc1ccc(Cl)c(OC(C)C(=O)O)c1` (stereo not given) has a melting point of 137 to 139 °C. Compound `COc1cc(C(C)=O)ccc1SC` has a melting point of 92 to 94 °C. In the case of `O=C(O)c1ccncc1N1CCOCC1`, the melting point is reported as 201 to 203 °C. Compound `Nc1ccnc(-c2ccccc2)c1` has a melting point of 126 to 128 °C. Compound `CC(=O)Nc1cccc(N2C(=O)C=CC2=O)c1` has a melting point of 185 to 187 °C. Work on `O=S(=O)(Cl)c1ccc(CCCl)cc1` yielded a melting point of 53 to 55 °C. For `Cc1cc(C)c2cc(C(=O)O)sc2n1`, the melting point was 198 to 200 °C. Compound `Cc1ccc(N)cc1NC(=O)c1ccccc1I` has a melting point of 190 to 192 °C. With `O=[N+]([O-])c1cnc(Cl)nc1NC1CC1` the melting point was 114 to 116 °C. With `Cc1ccnc(Oc2cc(N)ccc2C)c1` the melting point was 76 to 78 °C. Compound `Nc1ccc(Cn2cnc3ccccc32)cc1` has a melting point of 177 to 179 °C. Compound `Fc1ccc(Br)c(-c2nn[nH]n2)c1` has a melting point of 193 to 195 °C. `CC(C)(C)C(=O)C=Cc1ccc(Br)s1` gave a melting point of 44 to 46 °C. In the case of `N#CC1(CS(N)(=O)=O)CCCC1`, the melting point is reported as 72 to 74 °C. For `NNC(=O)c1ccc(COc2ccccc2)cc1`, the melting point was 148 to 150 °C. With `NC(C(=O)O)c1ccc2ccccc2c1` (stereo not given) the melting point was 251 to 253 °C. `Nc1ccc(Cl)c(C(=O)NCc2ccccc2F)c1` gave a melting point of 95 to 97 °C. `Cn1cnc(-c2cccc(N)c2)n1` gave a melting point of 184 to 186 °C. In the case of `CC(C)C(Oc1ccc(Br)cc1)C(=O)O` (stereo not given), the melting point is reported as 105 to 107 °C. Work on `O=C(Nc1ccc2c(c1)OCO2)C(Cl)(Cl)Cl` yielded a melting point of 99 to 101 °C. With `NS(=O)(=O)c1ccc2c(c1)C(=O)NCC2` the melting point was 240 to 242 °C. `Cc1ccc(C(C)NC(=O)CCl)cc1C` (stereo not given) gave a melting point of 196 to 198 °C. In the case of `OC(c1c(Cl)cccc1Cl)C1CCOCC1` (stereo not given), the melting point is reported as 106 to 108 °C. For `O=C(O)CSc1cccc(C(F)(F)F)c1`, the melting point was 19 to 21 °C. Work on `CNc1ccc(Br)cc1[N+](=O)[O-]` yielded a melting point of 101 to 103 °C. Compound `CC(C)CNCC(=O)O` has a melting point of 198 to 200 °C. With `COC(=O)c1ccc(CBr)cc1F` the melting point was 74 to 76 °C. For `CC(=O)N(C)c1ccc(S(=O)(=O)Cl)cc1`, the melting point was 133 to 135 °C. Compound `CCOC(=O)c1sc2nc(Cl)cc(C)c2c1C` has a melting point of 125 to 127 °C. `CS(=O)(=O)c1ccc(NC(=O)OCC(F)(F)F)cc1` showed a melting point of 175 to 177 °C. In the case of `COC(=O)C1(C)CCc2ccccc2C1=O` (stereo not given), the melting point is reported as 56 to 58 °C. `COc1cccc(-n2c(CC(=O)NN)csc2=NCc2ccco2)c1` showed a melting point of 151 to 153 °C. With `COc1ccc(NCc2ccc(N(C)C)cc2)cc1` the melting point was 102 to 104 °C. `O=C1CC(C(F)(F)F)N(C(=O)CCl)c2ccccc2N1` (stereo not given) showed a melting point of 159 to 161 °C. `CC(=O)c1ccc(OCC(=O)N2CCCC2)cc1` showed a melting point of 122 to 124 °C.
